Source: patent US20260240801A1, “COMPOSITIONS FOR TREATING PARKINSON’S DISEASE AND QUALITATIVE ASSESSMENT THEREOF” (InTrance Medical Systems Inc., priority 2023, published 2026)

Key:
[1] = Stability study of Compound 1 (E920) on storage: purity by HPLC; type: physicochemical
Protocol: (§1) Compound 1 purity was determined by HPLC at two wavelengths 220 nm and 280 nm. Identification of Compound 1 was carried out by IR and NMR methods (^1H NMR, ^13C NMR). The residual solvents methanol and dichloromethane (DCM) were determined by gas chromatography (GC). Residual water content was determined by Karl Fisher analysis. Thermogravimetric analysis (TGA) of Compound 1 was also carried out with hold time of 10 minutes at final temperature of 105° C.
• Detector: UV/Vis or Diode Array Detector • Wavelength: Signal A: 280 nm, Bandwidth: 4 nm, Reference: OFF • Signal B: 220 nm, Bandwidth: 4 nm, Reference: OFF • Column: SunFire C18 Column (150×4.6 mm, 3.5 um) • Mobile Phase A: 0.06% TFA in H2O • Mobile Phase B: 0.04% TFA in (MeOH:H2O, 80:20)
• Autosampler Temperature: 6° C. • Column Temperature: 40° C. • Flow Rate: 1.0 mL/min • Injection Volume: 5 μL • Run Time: 30 min
• Accurately weigh approximately 10.0 mg of test sample into a 20 mL volumetric flask. • Dilute to volume with diluent and mix well. (0.5 mg/mL).
• Integrate all peaks≥0.05% a/a, not present in the blank solution. • ECA—Analytical Method—E920H2—for standard qualification
(§2) The stability profile of Compound 1 (Eurofins CDMO Alphora Inc. code: E920) was being evaluated over a period of 6 months under Long Term storage condition of <−20° C. and 6 months under accelerated condition of 25±2° C./60%±5% RH; and at intermediate storage conditions of 5±3° C. Additional samples are stored at each storage conditions to cover the stability studies up to 12 months, after 6 months satisfactory stability results. Attributes being tested include: description of composition, purity by HPLC, identification by HPLC and water content by Karl Fischer (KF) Method. This study is conducted in compliance with ICH Q1A (R2) and Alphora Standard Operating Procedure SOP LC027.
(§3) The stability profile of Compound 1 (Eurofins CDMO Alphora Inc. code: E920) was being evaluated over a period of up to 12 months under Long Term storage condition of <−20° C. and up to 12 months under accelerated condition of 25±2° C./60%±5% RH; and store only at intermediate storage conditions of 5±3° C. Attributes being tested include: description of composition, purity by HPLC, identification by HPLC and water content by Karl Fischer (KF) Method. This study is conducted in compliance with ICH Q1A (R2) and Alphora Standard Operating Procedure SOP LC027.

[2] = Stability study of Compound 1 (E920) on storage: water content by Karl Fischer; type: physicochemical
Protocol: as §1, §2, §3

Compound: C[C@@](Cc1ccc(O)c(O)c1)(N/N=C/c1cc(O)c(O)c([N+](=O)[O-])c1)C(=O)O [Compound 1, (2s)-2-[(E)-2-[(3,4-dihydroxy-5-nitrophenyl)methylidene]hydrazin-1-yl]-3-(3,4-dihydroxyphenyl)-2-methylpropanoic acid]
- % Purity at 220 nm by HPLC ([1]; 25° C./60% RH, 1 M): 95.7%
- % Purity at 280 nm by HPLC ([1]; 25° C./60% RH, 1 M): 96.2%
- % a/a Purity at 220 nm by HPLC ([1]; 25° C./60% RH, 1 M): 95.7 % a/a
- % a/a Purity at 280 nm by HPLC ([1]; 25° C./60% RH, 1 M): 96.2 % a/a
- % Purity at 220 nm by HPLC ([1]; 25° C./60% RH, 3 M): 93.9%
- % Purity at 280 nm by HPLC ([1]; 25° C./60% RH, 3 M): 94.9%
- % a/a Purity at 220 nm by HPLC ([1]; 25° C./60% RH, 3 M): 93.9 % a/a
- % a/a Purity at 280 nm by HPLC ([1]; 25° C./60% RH, 3 M): 94.9 % a/a
- % a/a Purity at 220 nm by HPLC ([1]; 25° C./60% RH, 6 M): 94.8 % a/a
- % a/a Purity at 280 nm by HPLC ([1]; 25° C./60% RH, 6 M): 95.3 % a/a
- % a/a Purity at 220 nm by HPLC ([1]; 25° C./60% RH, 12 M): 93.2 % a/a
- % a/a Purity at 280 nm by HPLC ([1]; 25° C./60% RH, 12 M): 95.1 % a/a
- % Purity at 220 nm by HPLC ([1]; Initial): 95.4%
- % Purity at 280 nm by HPLC ([1]; Initial): 96.1%
- % a/a Purity at 220 nm by HPLC ([1]; Initial (12-month study)): 95.4 % a/a
- % a/a Purity at 280 nm by HPLC ([1]; Initial (12-month study)): 96.1 % a/a
- Three-month stability ([1]; −20° C. and 25° C./60% RH): satisfactory
- Twelve-month stability ([1]; −20° C. and 25° C./60% RH): satisfactory
- % Purity at 220 nm by HPLC ([1]; −20° C., 1 M): 95.8%
- % Purity at 280 nm by HPLC ([1]; −20° C., 1 M): 96.0%
- % a/a Purity at 220 nm by HPLC ([1]; −20° C., 1 M): 95.8 % a/a
- % a/a Purity at 280 nm by HPLC ([1]; −20° C., 1 M): 96.0 % a/a
- % Purity at 220 nm by HPLC ([1]; −20° C., 3 M): 94.3%
- % Purity at 280 nm by HPLC ([1]; −20° C., 3 M): 95.2%
- % a/a Purity at 220 nm by HPLC ([1]; −20° C., 3 M): 94.3 % a/a
- % a/a Purity at 280 nm by HPLC ([1]; −20° C., 3 M): 95.2 % a/a
- % a/a Purity at 220 nm by HPLC ([1]; −20° C., 6 M): 96.5% a/a
- % a/a Purity at 280 nm by HPLC ([1]; −20° C., 6 M): 96.1 % a/a
- % a/a Purity at 220 nm by HPLC ([1]; −20° C., 12 M): 95.9 % a/a
- % a/a Purity at 280 nm by HPLC ([1]; −20° C., 12 M): 96.6 % a/a
- % residual water content by KF ([2]; 25° C./60% RH, 1 M): 1.63%
- % residual water content by KF ([2]; 25° C./60% RH, 1 M (12-month study)): 1.63%
- % residual water content by KF ([2]; 25° C./60% RH, 3 M): 2.05%
- % residual water content by KF ([2]; 25° C./60% RH, 3 M (12-month study)): 2.05%
- % residual water content by KF ([2]; 25° C./60% RH, 6 M): 3.55%
- % residual water content by KF ([2]; 25° C./60% RH, 12 M): 4.02%
- % residual water content by KF ([2]; Initial): 1.51%
- % residual water content by KF ([2]; Initial (12-month study)): 1.51%
- % residual water content by KF ([2]; −20° C., 1 M): 1.67%
- % residual water content by KF ([2]; −20° C., 1 M (12-month study)): 1.67%
- % residual water content by KF ([2]; −20° C., 3 M): 1.96%
- % residual water content by KF ([2]; −20° C., 3 M (12-month study)): 1.96%
- % residual water content by KF ([2]; −20° C., 6 M): 3.35%
- % residual water content by KF ([2]; −20° C., 12 M): 4.08%
